According to PMC5147771, “High-Resolution Genetics Identifies the Lipid Transfer Protein Sec14p as Target for Antifungal Ergolines” (PLoS Genetics, 2016):
Values after ≈ are worked out from the molar mass of the structure shown. Read-outs that look alike come from different tables or passages of the source.

Tests used:
[1] = tested on: FLU-resistant C. neoformans strain BPY22; assay: microbe, parasite or virus in culture; assay type: cell-based; details: for MIC: Cryptococcus neoformans, 48 h
[2] = tested on: FLU-sensitive (DSY4982) and FLU-resistant (BPY22 and BPY17) C. neoformans isolates; assay type: cell-based

CN1C[C@H](C(=O)Nc2cccc(C(F)(F)F)c2)C[C@@H]2c3cccc4c3[C@H](C[C@H]21)CN4C(=O)OC(C)(C)C [NGx03]
MIC ([1]; read-out: MIC-0): 32 µg/mL (≈ 62.1 µM)
MIC ([1]; read-out: MIC-2): 16 µg/mL (≈ 31 µM)
mechanism of inhibition (fungicidal vs fungistatic) [2]: fungicidal effect

COC(=O)[C@@H]1C[C@@H]2c3cccc4c3[C@H](C[C@H]2N(C)C1)CN4C(=O)OCC(Cl)(Cl)Cl [NGx16]
activity against FLU-resistant strain (in words) [1]: weaker activity
mechanism of inhibition (fungicidal vs fungistatic) [2]: fungicidal effect

COC(=O)[C@@H]1C[C@@H]2c3c([N+](=O)[O-])ccc4c3[C@H](C[C@H]2N(C)C1)CN4C(=O)OCC(Cl)(Cl)Cl [NGx19]
activity against FLU-resistant strain (in words) [1]: weaker activity
